Data as given in patent publication US6376521B1, “A3 adenosine receptor antagonists” (The United States of America as represented by the …, priority 1998, dated 2002).
Like-named read-outs stand apart in the source and are kept apart here. Values belong to the molecule of their own block, whether it stands above or below them.

What was measured:
A2A adenosine receptors = biological target: T1, A2A adenosine receptors (Rattus norvegicus, UniProt P30543); assay: Displacement of specific [3H]CGS 21680 binding in rat striatal membranes; conditions: for Ki: [3H]CGS 21680, rat striatal membranes, n = 3-6, read-out: rA2A Ki ± S.E.M.; for inhibition at 100 µM: read-out: rA2A % inhibition (percentage of specific binding displaced)
T1 construct: from tissue
T1 sequence (P30543 whole entry): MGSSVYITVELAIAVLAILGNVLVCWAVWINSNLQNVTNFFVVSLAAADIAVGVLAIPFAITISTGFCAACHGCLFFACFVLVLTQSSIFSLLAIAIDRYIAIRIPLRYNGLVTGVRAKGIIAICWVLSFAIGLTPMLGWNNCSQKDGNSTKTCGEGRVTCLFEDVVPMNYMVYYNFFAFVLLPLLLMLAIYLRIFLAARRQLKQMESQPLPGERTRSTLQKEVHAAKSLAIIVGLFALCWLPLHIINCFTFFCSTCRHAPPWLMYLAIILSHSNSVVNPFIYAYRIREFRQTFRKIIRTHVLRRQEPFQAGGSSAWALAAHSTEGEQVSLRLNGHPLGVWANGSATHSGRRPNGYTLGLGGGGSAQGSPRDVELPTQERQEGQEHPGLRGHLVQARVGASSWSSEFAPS

A1 adenosine receptors = biological target: T2, A1 adenosine receptors (Rattus norvegicus, UniProt P25099); assay: Displacement of specific [3H]R-PIA binding in rat brain membranes; conditions: for Ki: [3H]R-PIA, rat brain membranes, n = 3-5, read-out: rA1 Ki ± S.E.M.; for inhibition at 100 µM: read-out: rA1 % inhibition (percentage of specific binding displaced)
T2 construct: from tissue
T2 sequence (P25099 1-326): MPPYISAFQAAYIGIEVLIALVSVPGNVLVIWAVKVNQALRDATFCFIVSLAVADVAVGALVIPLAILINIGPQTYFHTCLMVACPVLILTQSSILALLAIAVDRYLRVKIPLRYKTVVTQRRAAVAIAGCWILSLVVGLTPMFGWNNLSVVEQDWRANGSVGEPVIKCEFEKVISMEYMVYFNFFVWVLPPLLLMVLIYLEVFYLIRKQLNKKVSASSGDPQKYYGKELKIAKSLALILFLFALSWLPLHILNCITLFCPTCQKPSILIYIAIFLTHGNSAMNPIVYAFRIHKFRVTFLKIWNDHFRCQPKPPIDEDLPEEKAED

human A3 receptors = biological target: T3, human A3 receptors (Homo sapiens, UniProt P0DMS8); assay: Displacement of specific [125I]AB-MECA binding at human A3 receptors expressed in HEK cells, in membranes; conditions: for Ki: [125I]AB-MECA, HEK cell membranes, n = 3-4, read-out: hA3 Ki ± S.E.M.; for rA1/hA3: ratio of affinities rat A1 vs human A3
T3 construct: expressed in transfected cells
T3 sequence (P0DMS8 1-318): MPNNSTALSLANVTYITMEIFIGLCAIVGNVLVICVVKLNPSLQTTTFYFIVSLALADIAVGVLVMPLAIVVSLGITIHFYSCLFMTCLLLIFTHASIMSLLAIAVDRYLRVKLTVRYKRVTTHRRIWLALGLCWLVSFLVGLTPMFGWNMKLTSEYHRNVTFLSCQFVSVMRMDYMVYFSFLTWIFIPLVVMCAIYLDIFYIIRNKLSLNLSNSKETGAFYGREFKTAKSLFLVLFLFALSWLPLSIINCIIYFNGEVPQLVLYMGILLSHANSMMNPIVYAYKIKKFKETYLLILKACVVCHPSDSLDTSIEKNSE

rat A3 receptors = biological target: T4, rat A3 receptors (Rattus norvegicus, UniProt P28647); assay: Displacement of specific [125I]AB-MECA binding at rat A3 receptors stably expressed in CHO cells; conditions: Table 4
T4 construct: expressed in transfected cells
T4 sequence (P28647 1-320): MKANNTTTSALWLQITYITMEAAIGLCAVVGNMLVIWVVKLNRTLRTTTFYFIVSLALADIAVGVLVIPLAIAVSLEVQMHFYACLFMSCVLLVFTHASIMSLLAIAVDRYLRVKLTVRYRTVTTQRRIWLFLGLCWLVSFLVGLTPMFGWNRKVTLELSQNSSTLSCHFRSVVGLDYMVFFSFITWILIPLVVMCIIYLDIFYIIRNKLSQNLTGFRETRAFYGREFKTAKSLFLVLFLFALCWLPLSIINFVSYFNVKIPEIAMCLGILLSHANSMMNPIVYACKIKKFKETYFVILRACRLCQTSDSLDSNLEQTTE

Compound: CCOC(=O)c1c(-c2ccccc2)nc(CC)c(C(=O)SCC)c1CCCN1C(=O)c2ccccc2C1=O [Compound 5]
hA3 percentage of specific binding displaced (human A3 receptors; Table 2, at 10^−6 M): 28% (10^−6)
rA2A displacement of specific binding (class d) (A2A adenosine receptors; Table 2, at 10^−4 M): d (10^−4) (Displacement of <10% of specific binding at the indicated concentration (M).)

Compound: CCCOC(=O)c1c(-c2ccccc2)nc(CC)c(C(=O)SCC)c1CC [Compound 6]
rA1/hA3 (human A3 receptors; Table 2): 8.20
rA2A displacement of specific binding (class d) (A2A adenosine receptors; Table 2, at 10^−5 M): d (10^−5) (Displacement of <10% of specific binding at the indicated concentration (M).)

Compound: CCCCSC(=O)c1c(CC)nc(-c2cccc(Cl)c2)c(C(=O)OCCC)c1CC [Compound 7]
rA1/hA3 (human A3 receptors; Table 2): 7400
rA2A displacement of specific binding (class d) (A2A adenosine receptors; Table 2, at 10^−4 M): d (10^−4) (Displacement of <10% of specific binding at the indicated concentration (M).)

Compound: CCCOC(=O)c1c(-c2ccccc2)nc(CC)c(C(=O)SCCO)c1CCC [Compound 12]
rA1/hA3 (human A3 receptors; Table 2): 210

Compound: CCCOC(=O)c1c(-c2ccccc2)nc(CC)c(C(=O)SCCOC2CCCCO2)c1CCC (centres unmarked) [Compound 13]
rA1/hA3 (human A3 receptors; Table 2): >20
rA2A displacement of specific binding (class d) (A2A adenosine receptors; Table 2, at 10^−4 M): d (10^−4) (Displacement of <10% of specific binding at the indicated concentration (M).)
rA1 percentage of specific binding displaced (A1 adenosine receptors; Table 2, at 10^−4 M): 18 ± 1% (10^−4)

Compound: CCCOC(=O)c1c(-c2ccccc2)nc(CC)c(C(=O)SCCF)c1CCC [Compound 15]
rA1/hA3 (human A3 receptors; Table 2): 150

Compound: CCCOC(=O)c1c(-c2ccccc2)nc(CC)c(C(=O)SCC(F)(F)F)c1CCC [Compound 16]
rA1/hA3 (human A3 receptors; Table 2): 460

Compound: CCCc1c(C(=O)SCC)c(CC)nc(-c2ccccc2)c1C(=O)OCCCF [Compound 23]
rA1/hA3 (human A3 receptors; Table 2): 630

Compound: CCCc1c(C(=O)SCC)c(CC)nc(-c2ccccc2)c1C(=O)OCC(F)(F)C(F)(F)F [Compound 24]
rA1/hA3 (human A3 receptors; Table 2): 13

Compound: CCCOC(=O)c1c(-c2ccccc2F)nc(CC)c(C(=O)SCC)c1CCC [Compound 25]
rA1/hA3 (human A3 receptors; Table 2): 590

Compound: CCCOC(=O)c1c(-c2cccc(F)c2)nc(CC)c(C(=O)SCC)c1CCC [Compound 26]
rA1/hA3 (human A3 receptors; Table 2): 280

Compound: CCCOC(=O)c1c(-c2ccc(F)cc2)nc(CC)c(C(=O)SCC)c1CCC [Compound 27]
rA1/hA3 (human A3 receptors; Table 2): ˜400
rA2A percentage of specific binding displaced (A2A adenosine receptors; Table 2, at 10^−4 M): 50% (10^−4)

Compound: CCCOC(=O)c1c(-c2ccccc2)nc(CC)c2c1CCOC2=O [Compound 29]
hA3 displacement of specific binding (class d) (human A3 receptors; Table 2, at 10^−4 M): d (10^−4) (Displacement of <10% of specific binding at the indicated concentration (M).)

Compound: CCOC(=O)c1c(-c2ccccc2)nc(CC)c2c1CCCNC2=O [Compound 30]
rA2A displacement of specific binding (class d) (A2A adenosine receptors; Table 2, at 10^−4 M): d (10^−4) (Displacement of <10% of specific binding at the indicated concentration (M).)

Compound: CCOC(=O)c1c(C)nc(-c2ccccc2)c(C(=O)OCC)c1C [Compound 33]
rA1/hA3 (human A3 receptors; Table 2): 1.7

Now from value to molecule, other results behind:

Ki (A2A adenosine receptors; Table 3): 28.9 ± 4.8 µM
Ki (A1 adenosine receptors; Table 3): 1.74 ± 3.1 µM
Compound: CCCOC(=O)C1=C(C)NC(c2ccccc2)=C(C(=O)OCC)C1C (racemic) [Compound 60, 3-Propyl 5-ethyl 2,4-dimethyl-6-phenyl-1,4-(±)-dihydropyridine-3,5-dicarboxylate]

Ki (A2A adenosine receptors; Table 3): 21.8 ± 7.8 µM
Compound: CCOC(=O)C1=C(C)NC(c2ccccc2)=C(C(=O)OCC)C1CC (racemic) [Compound 61, 3,5-Diethyl 2-methyl-4-ethyl-6-phenyl-1,4-(±)-dihydropyridine-3,5-dicarboxylate]

Ki (human A3 receptors; Table 3): 4.58 ± 0.35 µM
rA1/hA3 (human A3 receptors; Table 3): >10
Ki (A2A adenosine receptors; Table 3): 12.5 ± 2.5 µM
rA1 % inhibition (percentage of specific binding displaced) (A1 adenosine receptors; Table 3, at 10^−4 M): 36 ± 14%
Compound: CCOC(=O)C1=C(c2ccccc2)NC(C)=C(C(=O)SCCOC)C1CC (racemic) [Compound 63, 5-Ethyl 2-methyl-4-ethyl-6-phenyl-3-[(2-methoxy-(ethylsulfanylcarbonyl)]-1,4-(±)-dihydropyridine-5-carboxylate]

Ki (human A3 receptors; Table 3): 15.3 ± 3.9 µM
rA1/hA3 (human A3 receptors; Table 3): >5
inhibition at 100 µM (A1 adenosine receptors; Table 3, at 10^−4 M): 32 ± 5%
Compound: CCOC(=O)C1=C(C)NC(c2ccccc2)=C(C(=O)OCC)C1C(OC)OC (racemic) [Compound 66, 3,5-Diethyl 2-methyl-6-phenyl-4-(dimethoxymethyl)-1,4-(±)-dihydropyridine-3,5-dicarboxylate]
rA2A displacement of specific binding (class d) (A2A adenosine receptors; Table 3, at 10^−4 M): d (10^−4) (Displacement of < 10% of specific binding at the indicated concentration (M).)

Ki (human A3 receptors; Table 3): 15.6 ± 5.4 µM
rA1/hA3 (human A3 receptors; Table 3): >6
inhibition at 100 µM (A2A adenosine receptors; Table 3, at 10^−4 M): 32 ± 15%
inhibition at 100 µM (A1 adenosine receptors; Table 3, at 10^−4 M): 26 ± 6%
Compound: CCOC(=O)C1=C(C)NC(c2ccccc2)=C(C(=O)OCC)C1C=O (racemic) [Compound 67, 3,5-Diethyl 2-methyl-6-phenyl-4-formyl-1,4(±)-dihydropyridine-3,5-dicarboxylate]

inhibition at 100 µM (A1 adenosine receptors; Table 3, at 10^−4 M): 22 ± 1%
Compound: CCOC(=O)C1=C(C)NC(C2CC2)=C(C(=O)OCc2ccccc2)C1C#Cc1ccccc1 (racemic) [Compound 70, 3-Ethyl 5-benzyl 2-methyl-4-phenylethynyl-6-cyclopropyl-1,4-(±)-dihydropyridine-3,5-dicarboxylate]
rA2A displacement of specific binding (class d) (A2A adenosine receptors; Table 3, at 10^−4 M): d (10^−4) (Displacement of < 10% of specific binding at the indicated concentration (M).)

inhibition at 100 µM (A1 adenosine receptors; Table 3, at 10^−4 M): 36 ± 8%
Compound: CCOC(=O)C1=C(C)NC(C2CCC2)=C(C(=O)OCc2ccccc2)C1C#Cc1ccccc1 (racemic) [Compound 71, 3-Ethyl 5-benzyl 2-methyl-4-phenylethynyl-6-cyclobutyl-1,4-(±)-dihydropyridine-3,5-dicarboxylate]
rA2A displacement of specific binding (class d) (A2A adenosine receptors; Table 3, at 10^−4 M): d (10^−4) (Displacement of < 10% of specific binding at the indicated concentration (M).)

Ki (human A3 receptors; Table 3): 0.0505 µM
rA1/hA3 (human A3 receptors; Table 3): 340
Ki (A2A adenosine receptors; Table 3): 7.16 ± 1.56 µM
Ki (A1 adenosine receptors; Table 3): 17.1 ± 4.3 µM
Compound: CCOC(=O)C1=C(C)NC(C2CCCC2)=C(C(=O)OCc2ccccc2)C1C#Cc1ccccc1 (racemic) [Compound 72, 3-Ethyl 5-benzyl 2-methyl-4-phenylethynyl-6-cyclopentyl-1,4(±)-dihydropyridine-3,5-dicarboxylate]

inhibition at 100 µM (A2A adenosine receptors; Table 3, at 10^−4 M): 20%
inhibition at 100 µM (A1 adenosine receptors; Table 3, at 10^−4 M): 22 ± 2%
Compound: CCOC(=O)C1=C(C)NC(C2CCCCC2)=C(C(=O)OCc2ccccc2)C1C#Cc1ccccc1 (racemic) [Compound 73, 3-Ethyl 5-benzyl 2-methyl-4-phenylethynyl-6-cyclohexyl-1,4-(±)-dihydropyridine-3,5-dicarboxylate]

inhibition at 100 µM (A1 adenosine receptors; Table 3, at 10^−4 M): 20 ± 4%
Compound: CCOC(=O)C1=C(CC)NC(c2ccccc2)=C(C(=O)OCC)C1C (racemic) [Compound 74, 3,5-Diethyl 2-ethyl-6-phenyl-4-methyl-1,4-(±)-dihydropyridine-3,5-dicarboxylate]
rA2A displacement of specific binding (class d) (A2A adenosine receptors; Table 3, at 10^−4 M): d (10^−4) (Displacement of < 10% of specific binding at the indicated concentration (M).)

Ki (human A3 receptors; Table 2, compounds 33-58): 0.215 ± 0.022 µM
rA1/hA3 (human A3 receptors; Table 2): 23
Ki (A2A adenosine receptors; Table 2, compounds 33-58): 24.5 ± 8.5 µM
Ki (A1 adenosine receptors; Table 2, compounds 33-58): 5.05 ± 0.54 µM
Compound: CCCOC(=O)c1c(C)nc(-c2ccccc2)c(C(=O)OCC)c1C [Compound 34, 3-Propyl 5-ethyl 2,4-dimethyl-6-phenylpyridine-3,5-dicarboxylate]

Ki (human A3 receptors; Table 2, compounds 33-58): 0.176 ± 0.038 µM
rA1/hA3 (human A3 receptors; Table 2): 19
Ki (A2A adenosine receptors; Table 2, compounds 33-58): 3.69 ± 1.25 µM
Ki (A1 adenosine receptors; Table 2, compounds 33-58): 3.36 ± 0.6 µM
Compound: CCOC(=O)c1c(C)nc(-c2ccccc2)c(C(=O)OCC)c1CC [Compound 35, 3,5-Diethyl 2-methyl-4-ethyl-6-phenylpyridine-3,5-dicarboxylate]

Ki (A2A adenosine receptors; Table 2, compounds 33-58): 2.56 ± 0.13 µM
Ki (A1 adenosine receptors; Table 2, compounds 33-58): 9.56 ± 4.09 µM
Compound: CCOC(=O)c1c(C)nc(-c2ccccc2)c(C(=O)OCC)c1C=O [Compound 41, 3,5-Diethyl 2-methyl-4-formyl-6-phenylpyridine-3,5-dicarboxylate]

Ki (A2A adenosine receptors; Table 2, compounds 33-58): 2.4 ± 0.22 µM
Compound: CCOC(=O)c1c(C)nc(-c2ccccc2)c(C(=O)OCC)c1C=Cc1ccccc1 [Compound 42]

Ki (human A3 receptors; Table 2, compounds 33-58): 0.00829 µM
rA1/hA3 (human A3 receptors; Table 2): 940
Ki (rat A3 receptors; [125I]AB-MECA, CHO cells, n = 3-5, read-out: rA3 Ki): 0.183 ± 0.033 µM
rA3/hA3 (rat A3 receptors; ratio of affinities at rat vs. human A3 receptors): 22
rA1/rA3 (rat A3 receptors; ratio of affinities rat A1 vs rat A3): 42
Ki (A1 adenosine receptors; Table 2, compounds 33-58): 7.77 ± 1.83 µM
Compound: CCCOC(=O)c1c(-c2ccccc2)nc(CC)c(C(=O)SCC)c1CC [Compound 49a, 5-Propyl 2,4-diethyl-3-(ethylsulfanylcarbonyl)-6-phenylpyridine-5-carboxylate]
